Test results reported in patent publication US20250161249A1, “USE OF PHENYLLACTIC ACID IN INHIBITING HELICOBACTER PYLORI INFECTION” (Zhejiang Gongshang University, priority 2022, published 2025).
In brackets after ≈: the same amount, converted by molar mass. Several values for one entry are separate records, joined by “and”; a condition that tells them apart may be missing. Identical values can stand only once. Entries after “also recorded” stand apart in the source; their conditions may differ.

What was measured:
[1] = tested on: H. pylori; assay: Effects of sub-inhibitory concentrations on growth curves of H. pylori; format: cell-based, Helicobacter pylori
Procedure: According to the determination of the bacteriostatic ability, the effects of phenyllactic acid on growth curves were analyzed. An H. pylori suspension cultured overnight was inoculated into a sterilized modified Brucella broth medium. The concentration was adjusted such that the initial inoculum size of the bacteria was 1×10^8 CFU/mL. The phenyllactic acid was added at the final concentrations of ⅛ MIC, ¼ MIC, ½ MIC and MIC, and no drug was added to the control group. The mixed solution was placed in a microaerobic environment at 37° C. for 120 h, the OD560 value was determined every other 12 h, and the changes of the growth curves at sub-inhibitory concentrations were observed and recorded.

[2] = tested on: gastric mucosal injury caused by H. pylori infection; assay: Histopathological observation (H&E) of gastric tissues of H. pylori infected mice; format: in vivo, C57BL/6J mice; details: phenyllactic acid 0.8 mg/mL, 400 μL gavage daily 4 weeks, antibiotics 400 μL daily 10 days
Procedure: After one week of acclimation, mice were randomly divided into 4 groups: ZC, ZH, ZP and ZA. The mice in the groups were treated as follows: ZC group (15 mice): every mouse was gavaged once every other day with 400 μL of a modified Brucella broth medium for 2 weeks, followed by daily gavage of 400 μL of ultrapure water every day for 4 weeks. […] The bacterial content of the H. pylori ZJC03 suspension was 10^8 CFU/mL. After the molding, all the mice in each group were sacrificed by cervical dislocation. Gastric mucosa samples were washed with PBS and collected aseptically. The stomach contents were frozen in liquid nitrogen and subsequently stored at −80° C. for testing in Examples 8-10. The gastric mucosa was fixed in a 4% paraformaldehyde (PFA) buffer solution for 24 h at room temperature. After the treatment, the stomach tissue was embedded with an EG 1160 paraffin machine. The paraffin block was placed in an RM 2235 rotary microtome for sectioning (5 μm), and the sections were stained with hematoxylin and eosin (H&E). The stained sections were observed under a light microscope and photographed (NIKON Eclipse Ci, Japan); and the imaging system was: NIKON digital sight DS-FI2, and the photographic magnification was: 400× and 200×.

[3] = tested on: IFN-γ, IL-6, IL-1β and IL-10 in the stomach tissue; assay: RT-qPCR of inflammatory factors in gastric mucosal tissues of H. pylori infected mice; format: in vivo, C57BL/6J mice; details: gavage
Procedure: After one week of acclimation, mice were randomly divided into 4 groups: ZC, ZH, ZP and ZA. The mice in the groups were treated as follows: […] After the molding, all the mice in each group were sacrificed by cervical dislocation. Gastric mucosa samples were washed with PBS and collected aseptically. The stomach contents were frozen in liquid nitrogen and subsequently stored at −80° C. for testing in Examples 8-10. The quantitative analysis of IFN-γ, IL-6, IL-1β and IL-10 in the stomach tissue was performed by RT-qPCR. Total RNA (100-500 ng/μL) was isolated from mouse stomach tissue samples according to the instructions of an RNA extraction kit, followed by reverse transcription of RNA into cDNA using the kit. The levels of each gene were normalized using GAPDH as an internal control. The RT-qPCR assay was performed according to the following thermal cycle program: pre-denaturation at 95° C. for 10 min, 40 cycles of 95° C. for 15 s and 60° C. for 30 s, and the melting curve was from 60° C. to 95° C. with a temperature increase of 0.3° C. every 15 s and the fluorescence signal was collected once, and a 2^−ΔΔCt method was used for calculation.

[4] = target: T1, urease activity of H. pylori ZJC03 (Helicobacter pylori, UniProt P69996); assay: Urease activity of H. pylori, phenol red method; format: biochemical; details: co-cultured 48 h
T1 construct: A total of 50 μL of the H. pylori culture solution and 50 μL of the phenyllactic acid; endogenous in cells; host or cells: Helicobacter pylori ZJC03 (live culture, 1×10^8 CFU/mL)
T1 sequence (P69996 whole entry): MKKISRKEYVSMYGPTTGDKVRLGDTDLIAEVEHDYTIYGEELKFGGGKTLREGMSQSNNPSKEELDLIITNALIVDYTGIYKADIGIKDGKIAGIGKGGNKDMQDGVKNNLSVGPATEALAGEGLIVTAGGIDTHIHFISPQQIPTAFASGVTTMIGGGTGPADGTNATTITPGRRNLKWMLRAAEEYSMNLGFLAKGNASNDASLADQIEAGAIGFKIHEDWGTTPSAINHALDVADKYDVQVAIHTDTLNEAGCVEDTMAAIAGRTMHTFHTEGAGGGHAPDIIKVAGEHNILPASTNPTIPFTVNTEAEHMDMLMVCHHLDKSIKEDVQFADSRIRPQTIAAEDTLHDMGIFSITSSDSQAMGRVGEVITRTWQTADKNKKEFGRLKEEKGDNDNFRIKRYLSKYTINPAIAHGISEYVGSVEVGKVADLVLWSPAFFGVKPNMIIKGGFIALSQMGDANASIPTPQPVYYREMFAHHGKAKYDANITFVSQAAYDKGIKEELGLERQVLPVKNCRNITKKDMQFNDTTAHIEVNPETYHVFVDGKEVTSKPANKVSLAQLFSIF
T1 sequence (P14916 whole entry, further chain): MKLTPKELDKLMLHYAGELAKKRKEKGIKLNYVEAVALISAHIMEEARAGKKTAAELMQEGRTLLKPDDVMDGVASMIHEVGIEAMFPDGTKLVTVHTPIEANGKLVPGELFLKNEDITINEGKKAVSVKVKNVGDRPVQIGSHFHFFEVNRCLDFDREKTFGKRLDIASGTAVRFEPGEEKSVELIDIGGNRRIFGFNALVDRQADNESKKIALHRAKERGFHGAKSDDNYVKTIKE

[5] = tested on: H. pylori ZJC03; assay: Bacteriostasis experiment by Kirby-Bauer method (inhibition zone); format: cell-based, Helicobacter pylori; details: 6 mm filter paper disk, 72 h
Procedure: Preparation of different concentrations of phenyllactic acid: phenyllactic acid was diluted two-fold to 40 mg/mL, 20 mg/mL, 10 mg/mL, 5 mg/mL, 2.5 mg/mL and 1.25 mg/mL. The solvent used for dilution was ultrapure water.
Preparation of antimicrobial susceptibility disks: filter paper was made into circular disks with a diameter of 6 mm, subjected to autoclaved sterilization for 15 min and dried. Each circular filter paper disk was completely soaked in phenyllactic acid solutions with different concentrations, and ultrapure water was taken as a blank control to obtain antimicrobial susceptibility disks with different concentrations.
Coating and culture: 100 μL of 10^8 CFU/mL of an H. pylori bacterial solution was evenly coated on a CBA medium and dried. Then the antimicrobial susceptibility disks with different concentrations of the phenyllactic acid were pasted on a plate by tweezers, and this operation was repeated 3 times for disks of each concentration. Then the plate was placed in a culture box (containing a microaerophilic gas-generating pack inside) and statically cultured at 37° C. for 72 h. The size of an inhibition zone (mm) was measured and the measurement result was recorded.

[6] = tested on: mouse gastric flora; assay: Gastric microbiota analysis by 16S rRNA gene sequencing in H. pylori infected mice; format: in vivo, C57BL/6J mice
Procedure: After one week of acclimation, mice were randomly divided into 4 groups: ZC, ZH, ZP and ZA. The mice in the groups were treated as follows:
ZP group (45 mice): every mouse was gavaged once every other day with 400 μL of the H. pylori ZJC03 bacterial suspension for 2 weeks, followed by daily gavage of 400 μL of phenyllactic acid (at the concentrations of 0.16 mg/mL, 0.32 mg/mL and 0.8 mg/mL respectively, and 15 mice for each concentration) every day for 4 weeks.
ZA group (15 mice): every mouse was gavaged once every other day with 400 μL of the H. pylori ZJC03 bacterial suspension for 2 weeks, followed by 10 days of gavage of combined antibiotics (at the dose of 400 μL per mouse per day), and after 10 days, each mouse continued to be gavaged with 400 μL of ultrapure water for 18 days.
After the molding, all the mice in each group were sacrificed by cervical dislocation. Gastric mucosa samples were washed with PBS and collected aseptically. The stomach contents were frozen in liquid nitrogen and subsequently stored at −80° C. for testing in Examples 8-10.
DNA samples were extracted from the gastric mucosa by a CTAB method, and the quality of DNA extraction was detected by agarose gel electrophoresis, and at the same time, the DNA was quantified by an ultraviolet spectrophotometer. The hypervariable regions V3-V4 of 16S rRNA of bacteria were amplified by using universal primers (341F and 805R). Paired-end sequencing of 2×250 bp was performed using a NovaSeq 6000 sequencer, and DNA extraction and sequencing were completed in the LC-Bio Technologies Co. Ltd.

[7] = tested on: H. pylori ZJC03; assay: Ultra microstructure observation (SEM, TEM, negative-stain TEM); format: cell-based, Helicobacter pylori; details: at the MIC
[8] = tested on: H. pylori; assay: Determination of minimum inhibitory concentration (agar dilution method); format: cell-based, Helicobacter pylori; details: 37° C., 48 h, microaerobic
[9] = tested on: H. pylori ZJC03; assay: Antimicrobial susceptibility test of H. pylori ZJC03 (E-test paper); format: cell-based, Helicobacter pylori; details: clinical strain H. pylori ZJC03, E-test paper
Procedure: The sensitivity of H. pylori ZJC03 was tested by using an E-text test paper.

[10] = gastric mucosa, ZP = 0.8 mg/mL phenyllactic acid, ZA = antibiotic treatment

O=C(O)C(O)Cc1ccccc1 (stereo not shown) [phenyllactic acid, Phenyllactic acid]
growth of H. pylori (growth curve, OD560) ([1]; MIC, 48 h, 72 h, 96 h and 120 h): completely inhibited; also recorded: significantly inhibited | growth of H. pylori (growth curve, OD560) ([1]; ¼ MIC): a certain bactericidal effect | growth of H. pylori (growth curve, OD560) ([1]; ½ MIC, 48 h, 72 h, 96 h and 120 h): significantly inhibited | growth of H. pylori (growth curve, OD560) ([1]; ⅛ MIC): basically not inhibited | H&E histopathology of gastric mucosa [2]: the tissue structure was substantially normal; also recorded: inflammatory cells basically disappeared | IFN-γ gene expression in gastric mucosa vs ZH modeling group [3]: significantly decreased; also recorded: significantly reduce | IL-1β gene expression in gastric mucosa vs ZH modeling group [3]: significantly decreased; also recorded: significantly reduce | IL-6 gene expression in gastric mucosa vs ZH modeling group [3]: significantly decreased; also recorded: significantly reduce | IL-10 relative expression level in gastric mucosa vs ZH modeling group [3]: increased without a statistical difference | inhibitory effect on urease activity ([4]; at 0.25 MIC): no significant inhibitory effect | inhibitory effect on urease activity ([4]; at 0.5 MIC): no significant inhibitory effect | inhibition rate of urease activity ([4]; at 2 MIC): 80.13%±1.18% | inhibition rate of urease activity ([4]; at the MIC): 43.01%+2.11% and 43.01%±2.11% | Inhibition zone diameter ([5]; 1.25 mg/mL solution): no inhibition zone | Inhibition zone diameter ([5]; 2.5 mg/mL solution): 6.94 ± 0.95 mm | Inhibition zone diameter ([5]; 5 mg/mL solution): 7.51 ± 0.74 mm | Inhibition zone diameter ([5]; 10 mg/mL solution): 9.98±0.97 mm | Inhibition zone diameter ([5]; 20 mg/mL solution): 12.41 ± 0.14 mm | Inhibition zone diameter ([5]; 40 mg/mL solution): 15.35 ± 0.94 mm | effect on the diversity of the gastric flora ([6]; ZP group compared with ZA group): no significant effect | decrease of relative abundance of Helicobacter pylori compared with ZH group ([6]; after 4 weeks of treatment): 9.46% | gastric flora with significant increases at the genus level (LEfSe, LDA>3) ([6]; after 4 weeks of treatment): Prevotella, Lactobacillus, Faecalibaculum, Olsenella, Aerococcus | Chao1 (alpha diversity) [6, 10]: 464.56 | Observed species (alpha diversity) [6, 10]: 453.6 | Shannon (alpha diversity) [6, 10]: 6.139 | Simpson (alpha diversity) [6, 10]: 0.9287 | Helicobacter in the stomach ([6]; genus level): significantly inhibit | content / growth of Lactobacillus in the stomach ([6]; genus level): improved; also recorded: significantly promote the growth | relative abundance of Lactobacillus in gastric microbiota ([6]; genus level): 22.39% | proportion of Proteobacteria in gastric flora vs ZH group ([6]; phylum level): significantly decreased | ratio of Bacteroides to Firmicutes in gastric flora ([6]; phylum level): increased | bacterial cell morphology, negative-stain transmission electron microscopy ([7]; 5-10 min): The flagella of the bacterial cells fell off | bacterial cell internal structure, transmission electron microscopy ([7]; 4 h): the cell walls were separated from the cell membranes | bacterial cell morphology, scanning electron microscopy ([7]; 4 h): most bacterial cells appeared to be disintegrated | minimum inhibitory concentration (MIC) [8]: 2500 µg/mL (≈ 15 mM)

CN(C)[C@@H]1C(O)=C(C(N)=O)C(=O)[C@@]2(O)C(O)=C3C(=O)c4c(O)cccc4[C@@](C)(O)[C@H]3C[C@@H]12 [Tetracycline]
Sensitivity of H. pylori ZJC03 to antibiotics [9]: 0.023 µg/mL

CC(O)C(=O)O (stereo not shown) [lactic acid]
Inhibition zone diameter ([5]; 10 mg/mL solution): no visible inhibition zone

Cc1ncc([N+](=O)[O-])n1CCO [Metronidazole]
Sensitivity of H. pylori ZJC03 to antibiotics [9]: insensitive

CC1(C)S[C@@H]2[C@H](NC(=O)[C@H](N)c3ccc(O)cc3)C(=O)N2[C@H]1C(=O)O [Amoxicillin]
Sensitivity of H. pylori ZJC03 to antibiotics [9]: 0.016 µg/mL

CC[C@H]1OC(=O)[C@H](C)[C@@H](O[C@H]2C[C@@](C)(OC)[C@@H](O)[C@H](C)O2)[C@H](C)[C@@H](O[C@@H]2O[C@H](C)C[C@H](N(C)C)[C@H]2O)[C@](C)(OC)C[C@@H](C)C(=O)[C@H](C)[C@@H](O)[C@]1(C)O [Clarithromycin]
Sensitivity of H. pylori ZJC03 to antibiotics [9]: 0.8 µg/mL
